Laboratory results as given in publication PMC4008422, “Cytotoxicity and activation of the Wnt/beta-catenin pathway in mouse embryonic stem cells treated with four GSK3 inhibitors” (BMC Research Notes, 2014).
Like-named read-outs stand apart in the source and are kept apart here.

What was measured:
ES-D3 cells = assay: Cell viability assay (MTT), ES-D3; type: cell-based, mouse; conditions: for viability reduced by: three days; for IC50: ES-D3 cells, three day treatment, medium devoid of LIF, reduced serum, read-out: IC50 (half maximal inhibitory concentration, cell viability)
Method: (§1) The medium was changed daily and the cells were passaged 2–3 times per week. […] A randomized control was performed with basal medium without growth factors and/or small molecules. Physiological activation of the Wnt/beta-catenin-pathway was tested in medium supplemented with 50 ng/ml Wnt3a.
(§2) The viability of the mouse ES cells was determined after exposure to different concentrations of GSK3 inhibitors for three days using the MTT assay. The decrease of MTT activity is a reliable metabolism-based test for quantifying cell viability; this decrease correlates with the loss of cell viability. 2,000 cells were seeded overnight on gelatine-coated 96-well plates in LIF-containing ES cell medium. […] Basal medium without GSK3 inhibitors or DMSO was used as control. All tested conditions were analyzed in triplicates.

Wnt/beta-catenin pathway [1] = assay: Wnt/beta-catenin TOPFlash dual luciferase reporter assay, ES-D3; type: cell-based, mouse; conditions: 48 and 72 h, vs control and 50 ng/ml Wnt3a
Method: (§3) The Wnt/beta-catenin reporter assay was performed with the M50 Super 8× TOPFlash and M51 Super 8× FOPFlash vector containing the firefly luciferase gene under the control of TCF/LEF binding sites (M50 Super 8x TOPFlash) or mutated bindings sites (M51 Super 8× FOPFlash). 12,500 cells were seeded overnight on gelatine-coated 96-well plates in LIF-containing ES cell medium. On the next day the cells were transfected using Lipofectamine (Life Technologies) with one of the aforementioned vectors plus pGL4.75 [hRluc/CMV] (Promega) encoding the renilla luciferase reporter gene hRluc as a transfection control. […] The Dual-Luciferase® reporter assay system (Promega) was employed 48 and 72 h after medium change to follow the luminescence reaction using a GloMax®-multi detection system (Promega).
(§4) To assess the activation of the Wnt/beta-catenin signaling pathway by GSK3i, a dual luciferase reporter assay was used (Figure 2A/B). Mouse ES cells were transfected with the M50 TOPflash firefly luciferase vector, comprising seven TCF/LEF binding sites or as a negative control with the M51 FOPflash vector harboring mutated binding sites. To normalize the transfection efficiency, a hRluc/CMV vector with a constitutive expression of the renilla luciferase was used. Mouse ES cells of both lines were incubated with GSK3 inhibitors with concentrations close to the IC50 values calculated for the ES-D3 cell line. Dual luciferase luminescence was measured 48 and 72 h after cultivation with one of the inhibitors.

Wnt/beta-catenin pathway [2] = assay: Wnt/beta-catenin TOPFlash dual luciferase reporter assay, ES-CCE; type: cell-based, mouse; conditions: 48 and 72 h, vs random controls and 50 ng/ml Wnt3a
Method: as §3, §4

T gene = assay: qPCR gene expression of T in ES-D3 cells; type: cell-based, mouse; conditions: six day treatment, vs undifferentiated or randomly differentiated cells
Method: Total RNA was isolated from the cells using the RNeasy Kit (Qiagen, Hilden, Germany). Briefly, the cells were lysed in Qiazol (Qiagen), the hydrophilic phase was loaded onto RNA spin columns, and RNA was then prepared as instructed. cDNA synthesis was performed with random hexamer primers and 2 μg of the isolated total RNA following the manufacturer’s instructions. 10–20 ng of cDNA was then loaded in each well of a 384-well plate and specific primers were mixed with the GoTaq® PCR master mix according to the manufacturers’ instructions. Primer sequences were (5’-3’): T fw: […], rev: […], Nanog fw: […], rev: […], and Pou5f1 fw: […], rev: […]. Each qPCR amplification was performed in triplicates and the gathered data were normalized with qBasePlus (Biogazelle, Zwijnaarde, Belgium) against the housekeeping genes G6pdx, Tbp, and Tuba1a[10].

Brachyury = assay: Immunofluorescence staining of Brachyury in ES-D3 cells; type: cell-based, mouse; conditions: for saturation of the concentration-response curve, Brachyury-positive cells: 0-10 μM CHIR-99021 or 0-2.5 μM CHIR-98014; for EC50: read-out: EC50 (Brachyury-positive cells)
Method: Immunofluorescence was performed according to standard procedures. ES cells were treated on 6-well plates with different GSK3 inhibitors and after 48 h 100,000 cells were re-seeded in each cavity of Matrigel-coated glass slides (Zellkontakt, Nörten-Hardenberg, Germany). After 24 h in medium the cells were fixed in 4% (w/v) paraformaldehyde for 45 min at 4°C. Subsequently, the cells were blocked for 20 min in PBS plus 0.2% Triton X-100, 6% BSA, and 1 mg/ml NaBH4. Primary and secondary antibodies were diluted in PBS with 0.1% Triton X-100 and 0.1% BSA. Primary antibodies were incubated on the slides for 2.5 h at room temperature (RT) or overnight at 4°C. Secondary antibodies were incubated on the slides for 1 h at RT. […] Secondary antibodies were obtained from Dianova (Hamburg, Germany). Finally, the slides were mounted with immunoselect antifading mounting medium containing DAPI (Dianova) to counterstain the nuclei. The stained cells were examined using an Olympus IX81 inverted microscope (Olympus, Hamburg, Germany).

ES-CCE cells = assay: Cell viability assay (MTT), ES-CCE; type: cell-based, mouse; conditions: BIO 0.1-1 μM, others 1-10 μM, three days
Method: as §1, §2

Oct3/4 = assay: Immunofluorescence staining of Oct3/4 in ES-D3 cells; type: cell-based, mouse; conditions: three day treatment
Method: Immunofluorescence was performed according to standard procedures. ES cells were treated on 6-well plates with different GSK3 inhibitors and after 48 h 100,000 cells were re-seeded in each cavity of Matrigel-coated glass slides (Zellkontakt, Nörten-Hardenberg, Germany). After 24 h in medium the cells were fixed in 4% (w/v) paraformaldehyde for 45 min at 4°C. Subsequently, the cells were blocked for 20 min in PBS plus 0.2% Triton X-100, 6% BSA, and 1 mg/ml NaBH4. Primary and secondary antibodies were diluted in PBS with 0.1% Triton X-100 and 0.1% BSA. Primary antibodies were incubated on the slides for 2.5 h at room temperature (RT) or overnight at 4°C. Secondary antibodies were incubated on the slides for 1 h at RT. The following primary antibodies were used: anti-Oct3/4 (sc-5279, Santa Cruz Biotechnology, Heidelberg, Germany) and anti-Brachyury (AF2085, R&D Systems, Minneapolis, MN, USA). Secondary antibodies were obtained from Dianova (Hamburg, Germany). Finally, the slides were mounted with immunoselect antifading mounting medium containing DAPI (Dianova) to counterstain the nuclei. The stained cells were examined using an Olympus IX81 inverted microscope (Olympus, Hamburg, Germany).

GSK3 = conditions: cell-free system; cited from earlier work
[3] = ES-D3, 5 μM, three day treatment

Compound | viability reduced by (ES-D3 cells; ES-D3, 1 μM) [%] | IC50 (ES-D3 cells) [nM] | saturation of the concentration-response curve, Brachyury-positive cells (Brachyury; ES-D3, three day treatment) [%] | toxicity (in words) (ES-CCE cells) | viability reduced by (ES-D3 cells; ES-D3, 2.5 μM) [%] | viability reduced by (ES-D3 cells; ES-D3, 5 μM) [%] | viability reduced by (ES-D3 cells; ES-D3, 7.5 μM) [%] | viability reduced by (ES-D3 cells; ES-D3, 10 μM) [%] | IC50 (ES-D3 cells; Mus musculus, 72 h) [nM] | activation of the Wnt/beta-catenin pathway (luminescence signal) (Wnt/beta-catenin pathway [1]; ES-D3, 5 μM) | activation of the Wnt/beta-catenin pathway (luminescence signal) (Wnt/beta-catenin pathway [2]; 5 μM) | T gene expression induction (T gene; ES-D3, 5 μM) | other results
CHIR-98014 | 52 | 1100 | 50 |  |  |  |  |  |  |  |  |  | activation of the Wnt/beta-catenin pathway (luminescence signal) (Wnt/beta-catenin pathway [1]; ES-D3, 1 μM): significant activation of the Wnt/beta-catenin pathway; activation of the Wnt/beta-catenin pathway (luminescence signal) (Wnt/beta-catenin pathway [2]; 1 μM): significant increase of Wnt-signaling after 48 and 72 h; T gene expression induction (T gene; ES-D3, 1 μM): up to 2,500 fold; Brachyury-positive cells (Brachyury; ES-D3, 1 μM, three day treatment): ~50%; EC50 (Brachyury; ES-D3, three day treatment, counting of stained cells): 320 nM
O=C1Nc2cc(Br)ccc2/C1=C1/Nc2ccccc2/C1=N\O [BIO] | 83.5 | 480 |  | strongly cytotoxic |  |  |  |  |  |  |  |  | viability reduced by (ES-D3 cells; ES-D3, 0.25 μM): 25.7%; viability reduced by (ES-D3 cells; ES-D3, 0.5 μM): 58.7%; viability reduced by (ES-D3 cells; ES-D3, 0.75 μM): 68.7%; activation of the Wnt/beta-catenin pathway (luminescence signal) (Wnt/beta-catenin pathway [1]; ES-D3, 0.5 μM): did not result in a robust activation of the Wnt/beta-catenin pathway above controls; activation of the Wnt/beta-catenin pathway (luminescence signal) (Wnt/beta-catenin pathway [2]; 0.5 μM): comparable to that of negative or positive controls; T gene expression induction (T gene; ES-D3, 0.5 μM): up to 300 fold; Brachyury-positive cells (Brachyury; ES-D3, 0.5 μM, three day treatment): almost no Brachyury-positive cells; cells positive for Oct3/4 (Oct3/4; ES-D3, 0.5 μM): almost all cells were positive for Oct3/4
Cc1c[nH]c(-c2cnc(NCCNc3ccc(C#N)cn3)nc2-c2ccc(Cl)cc2Cl)n1 [CHIR-99021] |  |  | 60 | smallest reduction of the viability | 24.7 | 56.3 | 61.9 | 69.2 | 4900 | significant activation of the Wnt/beta-catenin pathway | only a significant increase at 72 h | up to 2,500 fold | Brachyury-positive cells (Brachyury; [3]): around 43%; EC50 (Brachyury; Mus musculus, 72 h): 3190 nM; selectivity as GSK3 inhibitor (GSK3): most selective GSK3 inhibitor
Cn1cc(C2=C(c3ccc(Cl)cc3Cl)C(=O)NC2=O)c2ccccc21 [SB-216763] | 1.7 |  |  | smallest reduction of the viability | 29.8 | 55.6 | 56.1 | 57.2 | 5700 | significantly increased compared to control cells but not to Wnt3a-incubated cells | comparable to that of negative or positive controls | up to 300 fold | cells double-positive for Brachyury and Oct3/4 (Brachyury; [3]): ~ 3%; cells positive for Oct3/4 (Oct3/4; ES-D3, 5 μM): all cells were positive for Oct3/4
